{
  "source": "patent US10286038B2",
  "about": "“Lysosome membrane protein 2 (LIMP-2) based peptides and related uses” (Northwestern University, priority 2016, dated 2019)",
  "key": {"[1]": {"target": "T1, recombinant N370S mutant GC (Homo sapiens, UniProt P04062, N409S)", "T1 sequence (P04062 40-536 N409S)": "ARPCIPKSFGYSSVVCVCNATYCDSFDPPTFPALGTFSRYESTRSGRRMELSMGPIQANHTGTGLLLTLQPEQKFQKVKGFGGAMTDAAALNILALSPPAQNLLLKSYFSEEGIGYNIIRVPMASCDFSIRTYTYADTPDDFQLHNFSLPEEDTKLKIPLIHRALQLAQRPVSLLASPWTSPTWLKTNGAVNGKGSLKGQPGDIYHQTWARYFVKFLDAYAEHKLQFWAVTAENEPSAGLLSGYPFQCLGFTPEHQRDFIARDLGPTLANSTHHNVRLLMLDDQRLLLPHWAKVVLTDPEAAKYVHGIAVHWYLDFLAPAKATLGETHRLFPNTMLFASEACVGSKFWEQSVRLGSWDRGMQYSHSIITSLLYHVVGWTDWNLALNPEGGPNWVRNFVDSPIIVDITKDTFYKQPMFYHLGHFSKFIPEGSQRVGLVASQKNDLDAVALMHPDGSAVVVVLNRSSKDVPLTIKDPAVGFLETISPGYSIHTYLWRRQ", "test": "peptide pulldown of recombinant N370S mutant GC", "format": "binding", "settings": "cell-free system", "protocol": "For the pulldown of recombinant protein utilizing LIMP-2-derived peptides, 2 nmol of protein (GC, LAMAN and BSA) was incubated overnight at 4° C. with the ten-fold molecular amount (20 nmol) of biotinylated LIMP-2-derived peptides (helix 5, 3×D as well as TAT-peptides (see Table 1)) at neutral pH. The total incubation volume was 250 μl (50 mM NaPhosphate buffer, 150 mM NaCl, pH7). ‘High Capacity Streptavidin Beads’ (Thermo Fisher Scientific, Waltham, USA) were blocked with 1% BSA solution and equilibrated with the NaPhosphate buffer. For each pulldown 50 μl of beads were utilized and incubated with 200 μl enzyme/peptide mixture for 30 min. at room temperature. The remaining 50 μl of the enzyme/peptide samples were prepared for SDS-PAGE (INPUT fraction). After incubation of the beads with the enzyme/peptide mixture the samples were centrifuged for 1 min. at 1,500×g at 4° C. The supernatant was removed and stored at 4° C. (UNBOUND fraction). Subsequently, the beads were washed three times with NaPhosphate buffer followed by centrifugation at 4,000 rpm at room temperature. […] The INPUT and BOUND fractions of the pulldown experiments were loaded on a NuPAGE® Novex® 4-12% Bis-Tris gels (Thermo Fisher Scientific, Waltham, USA), subjected to electrophoresis and stained with coomassie (Brilliant Blue, R-250; BioRad). After destaining the gels were scanned."}, "[2]": {"target": "T2, lysosomal GC of living H4 cells (Homo sapiens, UniProt P04062)", "T2 construct": "Lysosomal GC activity of living H4 cells measured in vivo after incubation with uptake-optimized TAT-peptides; endogenous in cells; host or cells: H4 human neuroglioma cells (for the 74 h course: stably overexpressing α-synuclein)", "T2 sequence (P04062 40-536)": "T1 sequence (P04062 40-536 N409S) with S370N", "test": "live-cell lysosomal GC activity assay in H4 cells", "format": "cell-based", "settings": "10 μM TAT peptide, relative to buffer control", "protocol": "Lysosomal GC activity in living cells was assessed by applying a drug-response assay in the presence and absence of a lysosomal inhibitor (bafilomycin A1; Invivogen) dissolved in DMSO (24). TAT peptides (10 μM) were added to the cell medium for 1 h; then H4 cells (see Table 5) were incubated with 100 μg/mL cell-permeable artificial substrate 5-(pentafluorobenzoylamino) fluorescein di-β-D-glucopyranoside (PFB-FDGlu) (Life Technologies, Thermo Fisher Scientific) for another hour. Cells were washed with warm medium; then the medium was replaced with phenol red-free neurobasal medium (Life Technologies, Thermo Fisher Scientific). The fluorescence intensity was recorded every 30 min for β-4 h in a SpectraMax i3 plate reader (Molecular Devices) (PFB-FDGlu: excitation=485 nm, emission=530 nm). After the final reading, cells were fixed in 4% formaldehyde/PBS and were stained with CellTag 700 (LICOR Biosciences) according to the manufacturer's instructions to measure cell volume. The plate was scanned on an Odyssey infrared imager (LI-COR Biosciences). Fluorescence intensities were normalized to cell volume and graphed versus time. Whole-cell activity was obtained by calculating the area below the DMSO curve. Nonlysosomal activity corresponds to the area under the bafilomycin A1 curve. Lysosomal activity was obtained by subtracting both areas (FIG. 6H)."}, "[3]": {"system": "α-synuclein in H4 cells stably overexpressing α-synuclein", "settings": "doxycycline, 74 hrs post incubation, compared to 3×D control peptide", "procedure": "For Western blotting 20-40 μg of protein was loaded on a 10% Tris-SDS (made in house) or 4-12% Bis-Tris/NuPAGE Novex gel system (Thermo Fisher Scientific), subjected to electrophoresis, and blotted on nitrocellulose or PVDF membranes [2 h at 4° C. and 0.85 ampere (A) constant]. Membranes were blocked in 5% (wt/vol) milk Tris-buffered saline (TBS-T, pH 7.4, 0.1% Tween-20), and primary antibodies were incubated overnight (for more details on antibody dilutions see Table 4). PVDF membranes for α-synuclein detection were postfixed in 0.4% paraformaldehyde (PFA) (Polysciences Inc.) for 20 min after blotting. Signals were normalized to the respective loading controls [actin, neuronal-specific enolase (NSE), or GAPDH] […] Primary antibodies were incubated overnight at 4° C. After three washing steps in TBS-T the membranes were incubated for 1 h with the respective secondary antibody at room temperature. After the membrane was washed again three times with TBS-T, the signal of the antibody was detected using a chemiluminescence detection system (LAS4000; GE Healthcare Life Sciences) or by scanning on an infrared imager (Odyssey; LI-COR Biosciences).\nThe α-synuclein turn-over rate in the presence of the LIMP-2-derived peptides was assessed in human neuroglioma cells (H4), stably overexpressing α-synuclein. […]"}},
  "note": "Changes are numbered by the printed parent chain.",
  "data": [
    {"substance": "Biotin-Ttds-KFERQLREIIEAMLKAYQQKLFVTHTVDEYGRKKRRQRRR [helix 5 TAT-peptide]", "values": [
      {"measurement": "precipitation of recombinant N370S mutant GC", "setting": "[1]", "value": "as efficiently as recombinant wild-type GC"},
      {"measurement": "elevation of GC activity within lysosomes of living cells", "setting": "[2]", "value": 18, "unit": "%"},
      {"measurement": "α-synuclein levels", "setting": "[3]", "value": "significant reduction"}
    ]}
  ]
}
